Results published in ChEMBL document CHEMBL5537149, “Design, synthesis, and lead optimization of piperazinyl-pyrimidine analogues as potent small molecules targeting the viral capping machinery of Chikungunya virus” (Eur J Med Chem, 2024).
pEC50: −log10 of the molar value. In brackets after ≈: the same amount, converted by molar mass.

Legend:
[1] = Aqueous solubility of compound at pH 7.4 by HPLC analysis; format: physicochemical
[2] = Cytotoxicity against African green monkey Vero cells assessed as reduction in overall metabolic activity incubated for 5 days by MTS reagent based absorbance method; format: toxicity, cell-based; conditions: chlorocebus sabaeus, time 5 day
[3] = tested on: Chikungunya virus; test: Antiviral activity against Chikungunya virus infected in African green monkey Vero cells assessed as reduction in viral induced cell death incubated for 5 days by MTS reagent based absorbance method; format: functional, organism-based; conditions: 120 h
[4] = Metabolic stability in human liver microsomes assessed as half-life preincubated for 5 mins followed by NADPH addition and measured upto 60 mins by HPLC-MS/MS analysis; format: ADME, Microsome; conditions: time < 65 min
[5] = Selectivity index, ratio of CC50 for cytotoxicity against African green monkey Vero cells to EC50 for antiviral activity against Chikungunya virus infected in African green monkey Vero cells assessed as reduction in viral induced cell death; format: toxicity, cell-based; conditions: read-out: Ratio CC50/EC50

Compound | solubility [1] [µM] | CC50 at 120 h [2] [µM] | pEC50 [3] | half-life [4] [min] | selectivity ratio [5]
CCNc1nc(N2CCN(C(=O)c3ccc(Br)cc3)CC2)cc(C(F)(F)F)n1 | 33 (≈ 15.1 µg/mL) | > 100 | < 4.00 | – | –
CCNc1cc(C(F)(F)F)nc(N2CCN(C(=O)c3ccc(Br)cc3)CC2)n1 | 1.2 (≈ 0.55 µg/mL) | > 25 | < 5.20 | 56 | –
O=C(c1ccc(Cl)cc1)N1CCN(c2nc(C(F)(F)F)nc3[nH]cnc23)CC1 | 36 (≈ 14.8 µg/mL) | – | 4.59 | – | –
Cc1nc(Cl)c(N)c(N2CCN(C(=O)c3ccc(Cl)cc3)CC2)n1 | – | > 88 | < 4.06 | – | > 1
CCNc1cc(C(F)(F)F)nc(N2CCN(C(=O)c3ccc(Cl)c(Cl)c3)CC2)n1 | – | > 25 | < 5.20 | 36 | –
Cc1cc(N(C)C)nc(N2CCN(C(=O)c3cc(Cl)cc(Cl)c3)CC2)n1 | 95 (≈ 37.5 µg/mL) | > 100 | < 4.00 | – | –
Cc1cc(N2CCN(C(=O)c3ccc(Cl)cc3)CC2)nc(NC(C)C)n1 | 115 (≈ 43 µg/mL) | 46 | 4.74 | > 60 | 2.6
CCNc1cc(C)nc(N2CCN(C(=O)c3cccc([N+](=O)[O-])c3)CC2)n1 | 119 (≈ 44.1 µg/mL) | > 100 | 5.38 | 57 | > 24
CCNc1nc(C)cc(N2CC3CCC(C2)N3C(=O)c2ccc(Cl)cc2)n1 | – | 84 | 4.77 | – | 5
Nc1nc(N2CCN(C(=O)c3ccc(Cl)c(Cl)c3)CC2)c2nc[nH]c2n1 | 106 (≈ 41.6 µg/mL) | – | < 4.00 | – | –
CCNc1cc(N2CCN(S(=O)(=O)c3ccc(Cl)cc3)CC2)ncn1 | 95 (≈ 36.3 µg/mL) | 44 | 4.80 | > 60 | 2.7
CCNc1nc(C)cc(N2CCN(S(=O)(=O)c3ccc(Cl)cc3)CC2)n1 | 104 (≈ 41.2 µg/mL) | 11 | 5.56 | 49 | 3.9
CCNc1nc(C)cc(N2CCC3(CCN(C(=O)c4cc(Cl)cc(Cl)c4)C3)C2)n1 (stereo not given) | 98 (≈ 42.6 µg/mL) | – | 4.96 | > 60 | –
CNc1ccnc(N2CCN(S(=O)(=O)c3ccc(F)cc3)CC2)n1 | > 120 | 193 | 5.02 | 48 | 20
CCNc1cc(C)nc(N2CCN(C(=O)c3ccc(I)cc3)CC2)n1 | 116 (≈ 52.4 µg/mL) | > 100 | 5.54 | > 60 | > 34
Cc1nc(N2CCN(C(=O)c3ccc(Cl)cc3)CC2)c2nc[nH]c2n1 | 84 (≈ 30 µg/mL) | – | 4.01 | – | –
CCNc1nc(C)cc(N2CC3CN(C(=O)c4cc(Cl)cc(Cl)c4)CC3C2)n1 (stereo not given) | 109 (≈ 45.8 µg/mL) | – | 4.72 | > 60 | –
CCNc1cc(C)nc(N2CC3CCC(C2)N3C(=O)c2cc(Cl)cc(Cl)c2)n1 | 97 (≈ 40.8 µg/mL) | – | < 4.00 | – | –
CCNc1cc(C)nc(N2CCC(NC(=O)c3cc(Cl)cc(Cl)c3)CC2)n1 | 52 (≈ 21.2 µg/mL) | 48 | < 4.00 | – | < 0.48
CCNc1cc(C)nc(N2CC3CN(C(=O)c4ccc(Cl)cc4)CC3C2)n1 (stereo not given) | – | > 88 | 4.92 | – | > 7.5
CCNc1nc(C)cc(N2CC3CCC(C2)N3C(=O)c2cc(Cl)cc(Cl)c2)n1 | 111 (≈ 46.7 µg/mL) | – | 4.85 | > 60 | –

Compound | solubility [1] [µM] | CC50 at 120 h [2] [µM] | pEC50 [3] | half-life [4] [min] | selectivity ratio [5]
CCNc1cc(C)nc(N2CC3CCC(C2)N3C(=O)c2ccc(Cl)cc2)n1 | – | > 88 | 4.10 | – | > 1.11
CCNc1cc(C)nc(N2CCN(S(=O)(=O)c3ccc(Cl)nc3)CC2)n1 | 115 (≈ 45.6 µg/mL) | 97 | 3.92 | – | 0.8
CCNc1nc(C)cc(N2CCN(C(=O)c3ccc(C)cc3C)CC2)n1 | – | > 100 | < 4.00 | – | > 1
CCNc1cc(C)nc(N2CCCC(NC(=O)c3cc(Cl)cc(Cl)c3)C2)n1 (stereo not given) | 31 (≈ 12.7 µg/mL) | 49 | < 4.60 | – | < 1.95
CCNc1cc(C)nc(NC2CCN(C(=O)c3cc(Cl)cc(Cl)c3)CC2)n1 | 94 (≈ 38.4 µg/mL) | 25 | 4.92 | 30 | 2.02
CCNc1cc(C)nc(N2CCN(C(=O)C3CCCCC3)CC2)n1 | 119 (≈ 39.4 µg/mL) | 147 | 4.15 | – | 2.1
CCNc1cc(C)nc(N2CCC3(CCN(C(=O)c4ccc(Cl)cc4)C3)C2)n1 (stereo not given) | – | 74 | 4.49 | – | 2.3
CCNc1nc(N2CCN(C(=O)c3cc(Cl)cc(Cl)c3)CC2)cc(C(F)(F)F)n1 | 2 (≈ 0.897 µg/mL) | > 50 | < 4.90 | 29 | –
CCNc1nccc(N2CCN(C(=O)c3ccc(F)cc3)CC2)n1 | > 120 | > 304 | 3.67 | – | > 1.4
CCNc1cc(C)nc(N2CC3CN(C(=O)c4cc(Cl)cc(Cl)c4)CC3C2)n1 (stereo not given) | 108 (≈ 45.4 µg/mL) | – | 4.64 | – | –
O=C(c1cc(Cl)cc(Cl)c1)N1CCN(c2ncnc3[nH]cnc23)CC1 | 112 (≈ 42.3 µg/mL) | – | 4.49 | – | –
Nc1nc(N2CCN(C(=O)c3cc(Cl)cc(Cl)c3)CC2)c2nc[nH]c2n1 | 47 (≈ 18.4 µg/mL) | – | < 4.00 | – | –
CC(C)Nc1ccnc(N2CCN(S(=O)(=O)c3ccc(F)cc3)CC2)n1 | 100 (≈ 37.9 µg/mL) | – | 5.00 | 46 | –
O=C(c1cc(Cl)cc(Cl)c1)N1CCN(c2nc(C(F)(F)F)nc3[nH]cnc23)CC1 | 73 (≈ 32.5 µg/mL) | – | 4.11 | – | –
CCNc1cc(C)nc(N2CCN(S(=O)(=O)c3cccs3)CC2)n1 | 68 (≈ 25 µg/mL) | 180 | 3.99 | – | 1.8
Cc1nc(N2CCN(C(=O)c3cc(Cl)cc(Cl)c3)CC2)c2nc[nH]c2n1 | 92 (≈ 36 µg/mL) | – | < 4.00 | – | –
Cc1nc(Cl)c(N)c(N2CCN(C(=O)c3ccc(Cl)c(Cl)c3)CC2)n1 | 118 (≈ 47.3 µg/mL) | – | 5.01 | > 60 | –
Cc1cc(N2CCN(S(=O)(=O)c3ccc(F)cc3)CC2)nc(N2CCCC2)n1 | > 120 | 47 | 4.60 | – | 1.9
CCNc1nc(C)cc(N2CCN(C(=O)c3ccc(F)cc3F)CC2)n1 | – | > 100 | < 4.00 | – | > 1
Nc1nc(N2CCN(C(=O)c3ccc(Cl)cc3)CC2)c2nc[nH]c2n1 | 116 (≈ 41.5 µg/mL) | – | < 4.00 | – | –
CCNc1nc(C)cc(N2CC(NC(=O)c3cc(Cl)cc(Cl)c3)C2)n1 | 81 (≈ 30.8 µg/mL) | – | < 4.00 | – | –

Compound | solubility [1] [µM] | CC50 at 120 h [2] [µM] | pEC50 [3] | half-life [4] [min] | selectivity ratio [5]
CCNc1nc(C)cc(N2CCC3(CCN(C(=O)c4ccc(Cl)cc4)C3)C2)n1 (stereo not given) | – | 45 | 4.74 | – | 2.5
CCNc1nc(C)cc(N2CCN(C(=O)c3ccc(Cl)cc3Cl)CC2)n1 | > 120 | 47 | < 4.00 | – | < 0.47
Cc1nc(Cl)c(N)c(N2CCN(C(=O)c3cc(Cl)cc(Cl)c3)CC2)n1 | 94 (≈ 37.7 µg/mL) | – | 4.49 | – | –
CCNc1cc(C)nc(N2CCC3(CCN(C(=O)c4cc(Cl)cc(Cl)c4)C3)C2)n1 (stereo not given) | 108 (≈ 46.9 µg/mL) | – | 4.55 | – | –
O=C(c1ccc(Cl)c(Cl)c1)N1CCN(c2nc(C(F)(F)F)nc3[nH]cnc23)CC1 | 71 (≈ 31.6 µg/mL) | – | 5.02 | > 60 | –
CCNc1cc(C)nc(N2CCN(C(=O)c3cc(Cl)cc(Cl)c3)CC2)n1 | 11 (≈ 4.34 µg/mL) | > 100 | 4.17 | – | > 1.5
CCNc1cc(C(F)(F)F)nc(N2CCN(C(=O)c3cc(Cl)cc(Cl)c3)CC2)n1 | 3.5 (≈ 1.57 µg/mL) | > 25 | < 5.20 | 18 | –
CCNc1cc(C)nc(N2CCC3(CC2)CC(=O)c2ccccc2O3)n1 | 100 (≈ 35.2 µg/mL) | – | 4.64 | – | –
CCNc1nc(C)cc(N2CCC(NC(=O)c3cc(Cl)cc(Cl)c3)CC2)n1 | 100 (≈ 40.8 µg/mL) | > 100 | < 4.60 | – | –
Cc1cc(N2CCN(C(=O)c3cccc(Br)c3)CC2)nc(N(C)C)n1 | – | > 100 | 4.00 | – | > 1
CCNc1cc(C)nc(N2CC(NC(=O)c3cc(Cl)cc(Cl)c3)C2)n1 | 47 (≈ 17.9 µg/mL) | – | < 4.06 | – | –
O=C(c1ccc(Cl)c(Cl)c1)N1CCN(c2ncnc3[nH]cnc23)CC1 | 104 (≈ 39.2 µg/mL) | – | 4.18 | – | –
O=C(c1ccc(Cl)cc1)N1CCN(c2ncnc3[nH]cnc23)CC1 | 114 (≈ 39.1 µg/mL) | – | 4.03 | – | –
CCNc1nc(C)cc(N2CCC3(CC2)CC(=O)c2ccccc2O3)n1 | 98 (≈ 34.5 µg/mL) | – | 5.38 | > 60 | –
CCNc1cc(C(F)(F)F)nc(N2CCN(C(=O)c3cccc(Br)c3)CC2)n1 | 0.8 (≈ 0.367 µg/mL) | – | 4.39 | 17 | –
CCNc1cc(N2CCN(S(=O)(=O)c3ccc(F)cc3)CC2)ncn1 | 94 (≈ 34.4 µg/mL) | – | < 3.56 | – | –
CCNc1cc(C)nc(NC2CN(C(=O)c3cc(Cl)cc(Cl)c3)C2)n1 | 93 (≈ 35.4 µg/mL) | – | < 4.00 | – | –
CCNc1nc(C)cc(NC2CN(C(=O)c3cc(Cl)cc(Cl)c3)C2)n1 | 104 (≈ 39.5 µg/mL) | – | 5.07 | 37 | –
O=C(c1cc(Cl)cc(Cl)c1)N1CCN(c2nc(Cl)nc3[nH]cnc23)CC1 | 66 (≈ 27.2 µg/mL) | – | 4.74 | > 60 | –
CCNc1nc(C)cc(N2CC3CN(C(=O)c4ccc(Cl)cc4)CC3C2)n1 (stereo not given) | – | 72 | 5.49 | – | 23
CCNc1nc(N2CCN(C(=O)c3ccc(Cl)c(Cl)c3)CC2)cc(C(F)(F)F)n1 | – | > 100 | < 4.00 | – | –
